# Assays:
# [1] = system: Human umbilical vein endothelial cells; assay: TNF-induced tissue factor expression on endothelial cells, ELISA (Example 6); assay type: cell-based; conditions: 100 units/ml human recombinant TNF, 4 h; Peptide T 0.5 to 100 µg/ml; triplicate cultures
# Protocol: Human umbilical vein endothelial cells were cultured in M199 medium supplemented with 10% foetal calf serum, endothelial cell growth factor, penicillin, streptomycin and L-glutamine in 96-well dishes using a modification of the procedure of Bevilaqua et al, Proc. Natl. Acad. Sci. USA 83 4533 (1986)). TNF treatment of cultures (100 units.ml) was for 4 h at 37°C in the presence of growth medium, after which the cells were washed and fixed. Cultures were, also treated with Peptide T + TNF or Peptide T alone. In these cultures Peptide T was at a concentration which ranged from 0.5 to 100 µg/ml. Tissue factor expression by the endothelial cells treated with TNF with or without peptide T was determined in an ELISA using a monoclonal antibody which neutralises the activity of human tissue factor (Carlbiochem A/S). Bound anti-tissue factor antibody was detected using peroxidase-conjugated rabbit anti-mouse Ig and the substrate ABST. Colour intensity was determined by the optical density of each well at 405nm.
# Molt-4 = assay: Growth of spontaneously proliferating cell line Molt-4; assay type: cell-based; conditions: p56^lck negative human T lymphoma cell line
# Excerpt: Molt-4 is a human T lymphoma cell line, p56^lck negative, and Jurkat is a human T cell line, p56^lck positive, that will grow spontaneously in the absence of exogenous stimuli.
# allogeneic PBMC = assay: Two way MLR (Example 9); assay type: cell-based, human; conditions: without Peptide T 1365 ± 335
# Protocol: A two way MLR was performed using 10^5 allogeneic PBMC (cpm of A = 142 ± 86, B = 148 ± 84) cocultured in 200 µl of media as described in Table III.
# Peptide T given on the first day of an MLR will inhibit allogeneic induced proliferation of PBMC (Table IV).
# [2] = system: Human umbilical vein endothelial cells; assay: TNFα-induced tissue factor expression on endothelial cells, ELISA (Example 17); assay type: cell-based; conditions: TNFα 3 µg/ml for 4 hours; increasing concentrations of Peptide T
# Protocol: Methodology Human umbilical vein endothelial cells were cultured essentially by the method of Bevilacqua et al. Proc. Natl. Acad. Sci. USA 83 4533-4537 (1986). Cell cultures were treated with TNFα at 3 µg/ml for 4 hours at 37° in the presence or absence of Peptide T. Tissue factor expression was measured by an ELISA, following absorbence at 450nm.
# [3] = patients with AIDS; Phase I (USC) and Phase II (Fenway Clinic); cited from earlier work
# K562 target cells = assay: Macrophage cytotoxicity assay (two step, K562 target cells); assay type: cell-based
# Protocol: The MO/MAC cytotoxicity assay is a two step assay. After isolation of adherent cells (mainly MO/MAC) from PBMC, MO/MAC are activated by lymphokines (including IFN gamma and LPS. Subsequent to washing which removes activators, ^3H-thymidine labelled K562 target cells were added to activated MO/MAG and incubated for 3 days. The degree of cytotoxicity was proportional to the amount of radioactive label released into the culture supernatant, is shown in the following scheme : [drawing 8]
# PBMC = assay: Mitogen induced proliferation of PBMC, 3H thymidine uptake, 6 day culture (Example 8); assay type: cell-based, human
# Protocol: PBMC (10^5) were cultured in 200 µl RPMI containing 10% heat inactivated foetal bovine serum, 2 mM L-glutamine and gentamycin 100 µg/ml with mitogen and Peptide T added on the first day of culture. Growth was assessed in triplicate by ^3H thymidine uptake following a 6 day incubation and expressed as a proliferation index (cpm in presence of mitogen ± Peptide T […] cpm in absence of stimulation). A proliferation index >1.00 implies growth beyond that in media alone. At physiologically obtainable concentrations, Peptide T inhibits proliferation of normal (HIV seronegative) peripheral blood mononuclear cells (PBMC) without causing significant cytotoxicity as shown in Table III. This effect is long term in that Peptide T given on the first day of a six day culture will inhibit mitogen induced proliferation.
# K562 cells = assay: MO/MAC supernatant cytotoxicity against K562 cells; assay type: cell-based
# Protocol: Supernatant (SN) of activated MO/MAC were collected from monolayers of PBMC derived adherent cells that had been exposed to LPS for 23 hours. This SN was tested for cytolytic activity against ^3H-thymidine labelled K562 cells in a 48 hour, 37°C cytotoxicity assay. SN were stored at 4°C overnight or stored frozen at -20°C for longer periods before using.
# The ability of MO/MAC culture SN to lyse target K562 cells was determined in the presence of Peptide T. MO/MAC culture SN was used at a final dilution of 1:6 in the culture well.
smiles,measurement,setting,value
"C[C@@H](N)C(=O)N[C@@H](CO)C(=O)N[C@H](C(=O)N[C@H](C(=O)N[C@H](C(=O)N[C@@H](CC(N)=O)C(=O)N[C@@H](Cc1ccc(O)cc1)C(=O)N[C@H](C(N)=O)[C@@H](C)O)[C@@H](C)O)[C@@H](C)O)[C@@H](C)O [Peptide T, D-Ala-Ser-Thr-Thr-Thr-Asn-Tyr-Thr-NH2]",expression of tissue factor on endothelial cells,[1],inhibited
same,growth of Molt-4 cell line,Molt-4,did not significantly affect
same,cpm ± SD,allogeneic PBMC; Peptide T 10^-0 mol/l,764 ± 77 cpm
same,cpm ± SD,allogeneic PBMC; Peptide T 10^-5 mol/l,649 ± 263 cpm
same,cpm ± SD,allogeneic PBMC; Peptide T 10^-7 mol/l,534 ± 108 cpm
same,cpm ± SD,allogeneic PBMC; Peptide T 10^-11 mol/l,681 ± 222 cpm
same,cpm ± SD,allogeneic PBMC; Peptide T 10^-13 mol/l,235 ± 4 cpm
same,cpm ± SD,allogeneic PBMC; Peptide T 10^-15 mol/l,371 ± 117 cpm
same,cpm ± SD,allogeneic PBMC; Peptide T 10^-17 mol/l,672 ± 261 cpm
same,tissue factor expression,[2],progressively reduce tissue factor expression
same,HIV-induced neurocognitive impairment,[3],improvement
same,cytotoxicity of activated MO/MAC,K562 target cells; Peptide T added concurrently with target cells or every day of the culture,able to inhibit
same,ability of resting MO/MAC to be activated,K562 target cells; Peptide T added concurrently with the activators,did not affect
same,Proliferation Index ± SD,"PBMC; ConA 25 µg/ml, Peptide T 10^-5 mol/l, without Peptide T 4.55±0.66",2.72±1.20
same,Proliferation Index ± SD,"PBMC; ConA 25 µg/ml, Peptide T 10^-7 mol/l, without Peptide T 4.55±0.66",3.19±0.06
same,Proliferation Index ± SD,"PBMC; ConA 25 µg/ml, Peptide T 10^-9 mol/l, without Peptide T 4.55±0.66",1.98±0.04
same,Proliferation Index ± SD,"PBMC; ConA 25 µg/ml, Peptide T 10^-12 mol/l, without Peptide T 4.55±0.66",1.69±0.48
same,Proliferation Index ± SD,"PBMC; Media (absence of mitogens), Peptide T 10^-5 mol/l",1.14±0.15
same,Proliferation Index ± SD,"PBMC; Media (absence of mitogens), Peptide T 10^-7 mol/l",0.73±0.16
same,Proliferation Index ± SD,"PBMC; Media (absence of mitogens), Peptide T 10^-9 mol/l",2.17±1.10
same,Proliferation Index ± SD,"PBMC; Media (absence of mitogens), Peptide T 10^-12 mol/l",1.52±0.15
same,Proliferation Index ± SD,"PBMC; PHA 25 µg/ml, Peptide T 10^-5 mol/l, without Peptide T 317.0±41.0",149.0±38.4
same,Proliferation Index ± SD,"PBMC; PHA 25 µg/ml, Peptide T 10^-7 mol/l, without Peptide T 317.0±41.0",123.6±18.1
same,Proliferation Index ± SD,"PBMC; PHA 25 µg/ml, Peptide T 10^-9 mol/l, without Peptide T 317.0±41.0",78.6±23.1
same,Proliferation Index ± SD,"PBMC; PHA 25 µg/ml, Peptide T 10^-12 mol/l, without Peptide T 317.0±41.0",103.8±22.8
same,Proliferation Index ± SD,"PBMC; PWM 25 µg/ml, Peptide T 10^-7 mol/l, without Peptide T 7.47±0.50",4.47±0.36
same,Proliferation Index ± SD,"PBMC; PWM 25 µg/ml, Peptide T 10^-9 mol/l, without Peptide T 7.47±0.50",4.69±0.42
same,Proliferation Index ± SD,"PBMC; PWM 25 µg/ml, Peptide T 10^-12 mol/l, without Peptide T 7.47±0.50",4.15±0.23
same,concentration below which cytotoxicity returned to control levels,K562 cells; Figure 8,below 1x10^-15 M
same,concentration still able to block MO/MAC SN mediated lysis of K562,K562 cells; SN at final dilution of 1:6,0.1 pM

# Reference: patent EP0960886B1, “Peptide T and related peptides in the treatment of inflammation, including multiple sclerosis” (priority 1992, dated 1993)
